Reference: patent EP3431468B1, “USE OF ADIPONECTIN RECEPTOR AGONISTS IN TREATING DEPRESSION, ANXIETY AND NEUROINFLAMMATION” (CENTRE NATIONAL DE LA RECHERCHE SCIENTIFIQUE, priority 2017, dated 2019)

Assays:
[1] = system: AMPK; test: AMPK phosphorylation in hypothalamus by western blot; format: in vivo, mice; details: 1mg/kg
[2] = system: presumed serotoninergic neurons; test: Whole-cell patch-clamp recordings on brain slices, voltage clamp; format: cell-based, mouse
[3] = system: neurons of dorso-median raphe nucleus; test: Whole-cell patch-clamp recordings on brain slices, current clamp; format: cell-based, mouse
[4] = system: corticosterone-treated mice; test: Sucrose preference test, chronic administration; format: in vivo; details: chronic 1mg/kg ip daily
Method: (§1) Three well-established mouse models of depression-like behavior have been used in the present study namely i- the long-term corticosterone treatment in the drinking water (David, Samuels et al. 2009), ii- the peripheral administration of LPS (O'Connor, Lawson et al. 2009) iii- the ApN^-/- mice (Liu, Guo et al. 2012). For chronic AdipoRon treatment, the experimental protocol was as followed: • i- Five weeks old male mice (five/cage) received corticosterone (35mg/L dissolved in tap water containing 4 g/L CD) or vehicle alone ad libitum for during 7 consecutive weeks (David, Samuels et al. 2009). Corticosterone and vehicle solutions were changed every 3 days to prevent possible degradation. […]
(§2) All behavioral testing were conducted during the light phase (between 09:00 and 14:00 am) in compliance with the Institutional Animal Care and Use Committee of the University of Nice-Sophia Antipolis (permission number 010344.01 from the French "Ministère de l'Enseignement Supérieur et de la Recherche" granted to Dr. Joëlle Chabry). • Forced Swimming test (FST) - Mice were placed an inescapable transparent tank (20cm diameter, 30cm deep) filled with water (23°C ± 0.5) for six minutes as previously described by Porsolt et al. (1977). […] To initiate testing, mice were placed into the light side and activity was recorded for 5 minutes. […]

[5] = system: hippocampal neurogenesis; test: Hippocampal neurogenesis (BrdU-positive cells in dentate gyrus); format: in vivo, mice; details: chronic AdipoRon
[6] = system: corticosterone-treated mice; test: Novelty Suppressed Feeding (NSF), chronic administration; format: in vivo; details: chronic 1mg/kg ip daily
Method: as §1, §2

[7] = vehicle-treated mice (no corticosterone)

O=C(COc1ccc(C(=O)c2ccccc2)cc1)NC1CCN(Cc2ccccc2)CC1 [AdipoRon, 2-(4-Benzoylphenoxy)-N-[1-(phenylmethyl)-4-piperidinyl]-acetamide]
level of phospho-AMPK ([1]; 1-hour post ip injection): increased the level of phospho-AMPK
level of phospho-AMPK ([1]; 30 min post ip injection): increased the level of phospho-AMPK
level of phospho-AMPK ([1]; 3 hours post ip injection): no longer observable
effect of AdipoRon on current and membrane conductance ([2]; CsCl internal solution instead of KCl solution): blocked
membrane conductance ([2]; holding potential of -60 mV, KCl internal solution, 10 µM AdipoRon): decrease in membrane conductance
induced current ([2]; holding potential of -60 mV, KCl internal solution, n=9/9 presumed serotoninergic neurons, N=5 mice, 10 µM AdipoRon): small inward current
action potential discharge ([3]; 1/7 presumed serotoninergic neuron, current clamp): no effect
membrane potential ([3]; 6 out of 7 presumed serotoninergic neurons, current clamp): small depolarization
action potential discharge frequency ([3]; 6 out of 7 presumed serotoninergic neurons, current clamp, N= 4 mice): increase in action potential discharge frequency
membrane potential ([3]; presumed non-serotoninergic neurons, 2/4): hyperpolarization
membrane potential ([3]; presumed non-serotoninergic neurons, the other 2/4): no effect
sucrose preference (anhedonia) ([4]; corticosterone-treated mice): reversed the effect of corticosterone
sucrose preference (anhedonia) [4, 7]: no significant effect
hippocampal neurogenesis rate (BrdU-positive nuclei in dentate gyrus) ([5]; control conditions (no corticosterone)): without modifying neurogenesis
hippocampal neurogenesis rate (BrdU-positive nuclei in dentate gyrus) ([5]; long-term corticosterone-treated mice, 21-days post-BrdU injections): reversed the deleterious effect of corticosterone
latency to eat in the NSF ([6]; corticosterone-treated mice): reversed the effect of corticosterone
latency to eat in the NSF [6, 7]: no significant effect
